Experiment [1] has as its system 20S and 26S forms of the proteasome in MNT-1 melanocyte line. Kind of experiment: Anti-proteasome western blot of treated MNT1 cells. Format: cell-based, human. The following applies: lysis of MNT-1 24 hours and 72 hours after treatment, FIGS. 2A and 2B. As to the method:
(§1) 2.2 Treatment of MNT1 in Order to Assay the Proteasome, the Ubiquitin Proteins and the Tyrosinase by Western Blotting
(§2) 10^6 MNT1 cells/dish 35 mm in diameter, in quadruplicate
(§3) Treatment on D1 • Linoleic acid 25 μM • Palmitic acid 25 μM • Phaeodactylum 5 μg/ml
(§4) +1% bovine serum albumin (BSA)+Vitamin E (Vitamin E) 50 μM+Vitamin C (Vitamin C) 1 mM • Linoleic acid 25 μM • Palmitic acid 25 μM • Phaeodactylum 5 μg/ml
(§5) Preparation of the Lyzates on D2, D3 and D4
(§6) Recovery of the cell lawn in 150 μl of Laemmli 2× buffer+1% DTT (10 mM) by scraping.
Electrophoresis of the proteins is performed in a polyacrylamide minigel 1 mm to […] thick, under denaturing and reducing conditions, in batch buffer according to the Laemmli method (1970). […]
(§7) The bands are quantified by means of the Gels Analysts 3.01 software.
In parallel, using specific antibodies, the 20S and 26S forms of the proteasome were quantified by western blotting.
For the purpose of determining the cause of this activation of the peptidase activities of the proteasome, we evaluated via the western blotting technique the amount of proteasome in the homogenates obtained from the lysis of MNT-1 24 hours and 72 hours after their treatment with extracts of the alga Phaeodactylum tricornutum, with fatty acids, or with a proteasome-dependent proteolysis inhibitor Mg132).
(A western blot detects proteins with antibodies after separation by electrophoresis.)

Experiment [2] has as its system tyrosinase in B16F10 cells. The following applies: cited from earlier work; for proteasome-dependent degradation of tyrosinase: B16F10 cells, Ando H. et al., J. Biol. Chem. (2004); for amount of melanin: melanocyte culture, previous study.
Experiment [3] concerns ubiquitin proteins in MNT-1 melanocyte line. Kind of experiment: Anti-ubiquitin western blot of treated MNT1 cells. The following applies: 24 hours or 72 hours after treatment, FIG. 3A, 3B. Format: cell-based, human. As to the method:
as §1, §2, §3, §4, §5, §6
Electrophoresis of the proteins is performed in a polyacrylamide minigel 1 mm to […] thick, under denaturing and reducing conditions, in batch buffer according to the Laemmli method (1970). The gels containing 12% T, 2.7% C allow separation of the low molecular weight proteins ranging from 20 to 120 kDa. The gels containing 8% T; 2.7% C allow separation of the high molecular weight proteins from 35 to 250 kDa.
Next, this membrane is placed in contact with the primary antibody diluted to the optimum concentration in PBS-T with or without 5% milk (m/v) depending on the antibody, for 1 hour with stirring at room temperature or overnight at 4° C.
Under the action of peroxidase and an amplifier, the luminol is oxidized and goes into a transient excited state. […]
as §7

Structures are written as SMILES.

On to `CCCCC/C=C\C/C=C\CCCCCCCC(=O)O` [Linoleic acid], for which the “amount of proteasome (expression or distribution of the 20S and 26S forms)” value in experiment [1] is given as “does not modify”. For the same molecule, in experiment [2], the “proteasome-dependent degradation of tyrosinase” value is “stimulated” and the amount of melanin result is given as “decrease”. Further, in experiment [3], the “level of ubiquitin proteins” value is given as “not affected”.
`CCCCCCCCCCCCCCCC(=O)O` [Palmitic acid]: in experiment [2], the “proteasome-dependent degradation of tyrosinase” value was “reduced” and the amount of melanin result was “inverse effect”.

The values above are taken from patent US8372408B2, “Use of Phaeodactylum algae extract for depigmenting the skin” (LVMH Recherche, priority 2007, dated 2013).
